Experimental data as given in patent US12679848B2, “Plasma kallikrein inhibitors” (Merck Sharp & Dohme LLC, priority 2020, dated 2026).

Tests used:
[1] = molecular target: human factor XIa (Homo sapiens, UniProt P03951); assay: Factor XIa Assay; assay type: biochemical; details: human factor XIa 0.04 nM, substrate GPR-AFC, 30 min pre-incubation, 25° C., pH 7.4; read-out: FXIa IC50
[2] = molecular target: T1, Human plasma kallikrein (Homo sapiens, UniProt P03952); assay: Plasma Kallikrein Assay; assay type: biochemical; details: purified Human plasma kallikrein 0.5 nM, substrate Acetyl-K-P-R-AFC, HEPES pH 7.4; read-out: PKal IC50
T1 construct: yields a heavy chain (371 amino acids) and a light chain (248 amino acids); The active site of plasma kallikrein is contained in the light chain; purchased Enzyme Research Laboratories
Method in brief: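 Purified human plasma kallikrein at 0.5 nM final with substrate Acetyl-K-P-R-AFC at […], in 50 mM HEPES pH 7.4, 150 mM NaCl, 5 mM CaCl2, 0.1% PEG 8000, at rt or 37° C after enzyme-inhibitor equilibration. IC50 from four-parameter logistic fit of fluorescence rate; Ki via Cheng-Prusoff.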

Chain of human factor XIa (P03951 388-625 limits assumed): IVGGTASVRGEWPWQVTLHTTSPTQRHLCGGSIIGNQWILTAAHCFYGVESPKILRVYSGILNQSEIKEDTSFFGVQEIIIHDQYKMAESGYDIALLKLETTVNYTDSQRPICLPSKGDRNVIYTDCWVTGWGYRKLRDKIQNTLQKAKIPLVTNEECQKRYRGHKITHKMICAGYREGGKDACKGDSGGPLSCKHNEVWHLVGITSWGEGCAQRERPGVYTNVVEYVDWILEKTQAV
Chain of human factor XIa (P03951 19-387 partner limits assumed): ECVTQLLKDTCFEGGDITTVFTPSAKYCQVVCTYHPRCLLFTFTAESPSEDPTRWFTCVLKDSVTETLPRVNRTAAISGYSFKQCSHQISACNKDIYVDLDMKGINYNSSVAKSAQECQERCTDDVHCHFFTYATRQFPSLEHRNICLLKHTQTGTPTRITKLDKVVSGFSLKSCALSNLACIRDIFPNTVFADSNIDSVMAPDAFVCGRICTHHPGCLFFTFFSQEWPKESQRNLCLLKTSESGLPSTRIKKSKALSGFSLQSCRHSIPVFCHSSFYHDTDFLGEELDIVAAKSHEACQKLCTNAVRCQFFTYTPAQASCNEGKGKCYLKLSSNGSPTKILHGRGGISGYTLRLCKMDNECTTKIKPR
T1 sequence (P03952 391-638 limits assumed): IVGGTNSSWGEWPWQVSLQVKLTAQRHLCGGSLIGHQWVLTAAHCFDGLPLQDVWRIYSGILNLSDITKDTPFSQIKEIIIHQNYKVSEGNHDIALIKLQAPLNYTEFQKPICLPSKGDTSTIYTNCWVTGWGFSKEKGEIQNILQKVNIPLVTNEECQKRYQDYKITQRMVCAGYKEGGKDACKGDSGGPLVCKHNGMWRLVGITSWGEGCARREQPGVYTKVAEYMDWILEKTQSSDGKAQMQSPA
T1 sequence (P03952 20-390 partner limits assumed): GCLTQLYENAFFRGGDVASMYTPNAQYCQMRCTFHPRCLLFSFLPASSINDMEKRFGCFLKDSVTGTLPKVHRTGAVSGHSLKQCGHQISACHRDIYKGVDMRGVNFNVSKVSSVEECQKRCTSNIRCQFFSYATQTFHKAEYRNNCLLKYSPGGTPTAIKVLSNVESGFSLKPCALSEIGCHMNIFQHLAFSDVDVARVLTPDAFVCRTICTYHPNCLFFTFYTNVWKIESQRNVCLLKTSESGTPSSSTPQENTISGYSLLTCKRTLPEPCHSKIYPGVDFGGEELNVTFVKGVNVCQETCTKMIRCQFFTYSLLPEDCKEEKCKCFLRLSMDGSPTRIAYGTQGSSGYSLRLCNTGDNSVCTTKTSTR

| IC50 [1] [nM] | IC50 [2] [nM] | Compound |
| --- | --- | --- |
| 504 | 1.4 | Nc1c(C(=O)N2CCC[C@@]3(C2)OC(=O)Nc2ccc(Cl)c(F)c23)cnn1Cc1ccc(Cl)cc1 [Example 42, (R)-1'-(5-Amino-1-(4-chlorobenzyl)-1H-pyrazole-4-carbonyl)-6-chloro-5-fluorospiro[benzo[d][1,3]oxazine-4,3'-piperidin]-2(1H)-one] |
| 905 | 8 | Nc1c(C(=O)N2CCC[C@@]3(C2)OC(=O)Nc2ccc(Cl)c(F)c23)cnn1Cc1ccc(C(F)(F)F)nc1 [Example 43, (R)-1'-(5-Amino-1-((6-(trifluoromethyl)pyridin-3-yl)methyl)-1H-pyrazole-4-carbonyl)-6-chloro-5-fluorospiro[benzo[d][1,3]oxazine-4,3'-piperidin]-2(1H)-one] |
| 251 | 1.1 | Nc1c(C(=O)N2CCC[C@@]3(C2)OC(=O)Nc2ccc(Cl)c(F)c23)cnn1Cc1ccccc1Cl [Example 44, (R)-1'-(5-Amino-1-(2-chlorobenzyl)-1H-pyrazole-4-carbonyl)-6-chloro-5-fluorospiro[benzo[d][1,3]oxazine-4,3'-piperidin]-2(1H)-one] |
| 156 | 0.7 | Cc1cccc(Cn2ncc(C(=O)N3CCC[C@@]4(C3)OC(=O)Nc3ccc(Cl)c(F)c34)c2N)c1 [Example 45, (R)-1'-(5-Amino-1-(3-methylbenzyl)-1H-pyrazole-4-carbonyl)-6-chloro-5-fluorospiro[benzo[d][1,3]oxazine-4,3'-piperidin]-2(1H)-one] |
| 167 | 1.2 | Nc1c(C(=O)N2CCC[C@@]3(C2)OC(=O)Nc2ccc(Cl)c(F)c23)cnn1C1(c2ccc(F)cc2)CCC1 [Example 46, (R)-1'-(5-Amino-1-(1-(4-fluorophenyl)cyclobutyl)-1H-pyrazole-4-carbonyl)-6-chloro-5-fluorospiro[benzo[d][1,3]oxazine-4,3'-piperidin]-2(1H)-one] |
| 731 | 6.3 | Nc1c(C(=O)N2CCC[C@@]3(C2)OC(=O)Nc2ccc(Cl)c(F)c23)cnn1C1(C(F)(F)F)CCC1 [Example 47, (R)-1'-(5-Amino-1-(1-(trifluoromethyl)cyclobutyl)-1H-pyrazole-4-carbonyl)-6-chloro-5-fluorospiro[benzo[d][1,3]oxazine-4,3'-piperidin]-2(1H)-one] |
| 516 | 13.1 | Nc1c(C(=O)N2CCC[C@@]3(C2)OC(=O)Nc2ccc(Cl)c(F)c23)cnn1CC(F)(F)C(F)(F)F [Example 48, (R)-1'-(5-Amino-1-(2,2,3,3,3-pentafluoropropyl)-1H-pyrazole-4-carbonyl)-6-chloro-5-fluorospiro[benzo[d][1,3]oxazine-4,3'-piperidin]-2(1H)-one] |
| 2930 | 16.9 | CC(C)(n1ncc(C(=O)N2CCC[C@@]3(C2)OC(=O)Nc2ccc(Cl)c(F)c23)c1N)C(F)(F)F [Example 49, (R)-1'-(5-Amino-1-(1,1,1-trifluoro-2-methylpropan-2-y1)-1H-pyrazole-4-carbonyl)-6-chloro-5-fluorospiro[benzo[d][1,3]oxazine-4,3'-piperidin]-2(1H)-one] |
| 684 | 8.3 | Nc1c(C(=O)N2CCC[C@@]3(C2)OC(=O)Nc2ccc(Cl)c(F)c23)cnn1C1(C(F)(F)F)CC1 [Example 50, (R)-1'-(5-Amino-1-(1-(trifluoromethyl)cyclopropyl)-1H-pyrazole-4-carbonyl)-6-chloro-5-fluorospiro[benzo[d][1,3]oxazine-4,3'-piperidin]-2(1H)-one] |
| 996 | 9.8 | Nc1c(C(=O)N2CCC[C@@]3(C2)OC(=O)Nc2ccc(Cl)c(F)c23)cnn1Cc1cncnc1 [Example 51, (R)-1'-(5-Amino-1-(pyrimidin-5-ylmethyl)-1H-pyrazole-4-carbonyl)-6-chloro-5-fluorospiro[benzo[d][1,3]oxazine-4,3'-piperidin]-2(1H)-one] |
| 978 | 9.1 | Nc1c(C(=O)N2CCC[C@@]3(C2)OC(=O)Nc2ccc(Cl)c(F)c23)cnn1C1(C(F)(F)F)CC(F)(F)C1 [Example 52, (R)-1'-(5-Amino-1-(3,3-difluoro-1-(trifluoromethyl)cyclobutyl)-1H-pyrazole-4-carbonyl)-6-chloro-5-fluorospiro[benzo[d][1,3]oxazine-4,3'-piperidin]-2(1H)-one] |
| 1110 | 8.7 | Nc1c(C(=O)N2CCC[C@@]3(C2)OC(=O)Nc2ccc(Cl)c(F)c23)cnn1C1(C(F)(F)F)CCOCC1 [Example 53, (R)-1'-(5-Amino-1-(4-(trifluoromethyl)tetrahydro-2H-pyran-4-y1)-1H-pyrazole-4-carbonyl)-6-chloro-5-fluorospiro[benzo[d][1,3]oxazine-4,3'-piperidin]-2(1H)-one] |
| 601 | 3.4 | Nc1c(C(=O)N2CCC[C@@]3(C2)OC(=O)Nc2ccc(Cl)c(F)c23)cnn1Cc1cnccn1 [Example 54, (R)-1'-(5-Amino-1-(pyrazin-2-ylmethyl)-1H-pyrazole-4-carbonyl)-6-chloro-5-fluorospiro[benzo[d][1,3]oxazine-4,3'-piperidin]-2(1H)-one] |
| 418 | 2 | Nc1c(C(=O)N2CCC[C@@]3(C2)OC(=O)Nc2ccc(Cl)c(F)c23)cnn1Cc1cccnc1 [Example 55, (R)-1'-(5-Amino-1-(pyridin-3-ylmethyl)-1H-pyrazole-4-carbonyl)-6-chloro-5-fluorospiro[benzo[d][1,3]oxazine-4,3'-piperidin]-2(1H)-one] |
| 3130 | 39.7 | COc1ccc(-n2ncc(C(=O)N3CCC[C@@]4(C3)OC(=O)Nc3ccc(Cl)c(F)c34)c2N)cc1 [Example 58, (R)-1'-(5-Amino-1-(4-methoxyphenyl)-1H-pyrazole-4-carbonyl)-6-chloro-5-fluorospiro[benzo[d][1,3]oxazine-4,3'-piperidin]-2(1H)-one] |
| 1160 | 25.7 | Nc1c(C(=O)N2CCC[C@@]3(C2)OC(=O)Nc2ccc(Cl)c(F)c23)cnn1-c1ccc2cn[nH]c2c1 [Example 59, (R)-1'-(5-Amino-1-(1H-indazol-6-yl)-1H-pyrazole-4-carbonyl)-6-chloro-5-fluorospiro[benzo[d][1,3]oxazine-4,3'-piperidin]-2(1H)-one] |
| 599 | 8 | Nc1c(C(=O)N2CCC[C@@]3(C2)OC(=O)Nc2ccc(Cl)c(F)c23)cnn1-c1ccnc2ccc(F)cc12 [Example 60, (R)-1'-(5-Amino-1-(6-fluoroquinolin-4-y1)-1H-pyrazole-4-carbonyl)-6-chloro-5-fluorospiro[benzo[d][1,3]oxazine-4,3'-piperidin]-2(1H)-one] |
| 1750 | 42.5 | Cc1ncccc1-n1ncc(C(=O)N2CCC[C@@]3(C2)OC(=O)Nc2ccc(Cl)c(F)c23)c1N [Example 61, (R)-1'-(5-Amino-1-(2-methylpyridin-3-y1)-1H-pyrazole-4-carbonyl)-6-chloro-5-fluorospiro[benzo[d][1,3]oxazine-4,3'-piperidin]-2(1H)-one] |
| 855 | 22.9 | Nc1c(C(=O)N2CCC[C@@]3(C2)OC(=O)Nc2ccc(Cl)c(F)c23)cnn1-c1ncccc1F [Example 62, (R)-1'-(5-Amino-1-(3-fluoropyridin-2-y1)-1H-pyrazole-4-carbonyl)-6-chloro-5-fluorospiro[benzo[d][1,3]oxazine-4,3'-piperidin]-2(1H)-one] |
| 1580 | 29 | Cc1c(CO)cccc1-n1ncc(C(=O)N2CCC[C@@]3(C2)OC(=O)Nc2ccc(Cl)c(F)c23)c1N [Example 63, (R)-1'-(5-Amino-1-(3-(hydroxymethyl)-2-methylphenyl)-1H-pyrazole-4-carbonyl)-6-chloro-5-fluorospiro[benzo[d][1,3]oxazine-4,3'-piperidin]-2(1H)-one] |
| 1310 | 28.1 | Cc1ccccc1-n1ncc(C(=O)N2CCC[C@@]3(C2)OC(=O)Nc2ccc(Cl)c(F)c23)c1N [Example 64, (R)-1'-(5-Amino-1-(o-toly1)-1H-pyrazole-4-carbonyl)-6-chloro-5-fluorospiro[benzo[d][1,3]oxazine-4,3'-piperidin]-2(1H)-one] |
| 160 | 37.5 | Nc1c(C(=O)N2CCC[C@@]3(C2)OC(=O)Nc2ccc(Cl)c(F)c23)cnn1-c1ccc(Cl)cc1Cl [Example 65, (R)-1'-(5-Amino-1-(2,4-dichlorophenyl)-1H-pyrazole-4-carbonyl)-6-chloro-5-fluorospiro[benzo[d][1,3]oxazine-4,3'-piperidin]-2(1H)-one] |
| 242 | 39 | Cc1ccc(-n2ncc(C(=O)N3CCC[C@@]4(C3)OC(=O)Nc3ccc(Cl)c(F)c34)c2N)c(F)c1 [Example 66, (R)-1'-(5-Amino-1-(2-fluoro-4-methylpheny1)-1H-pyrazole-4-carbonyl)-6-chloro-5-fluorospiro[benzo[d][1,3]oxazine-4,3'-piperidin]-2(1H)-one] |
| 7320 | 46.2 | CC(=O)Nc1ccc(-n2ncc(C(=O)N3CCC[C@@]4(C3)OC(=O)Nc3ccc(Cl)c(F)c34)c2N)cc1 [Example 67, (R)-N-(4-(5-Amino-4-(6-chloro-5-fluoro-2-oxo-1,2-dihydrospiro[benzo[d][1,3]oxazine-4,3'-piperidine]-1'-carbonyl)-1H-pyrazol-1-yl)phenyl)acetamide] |
| 1480 | 13.5 | Nc1c(C(=O)N2CCC[C@@]3(C2)OC(=O)Nc2ccc(Cl)c(F)c23)cnn1-c1cccc(C(=O)O)c1 [Example 68, (R)-3-(5-Amino-4-(6-chloro-5-fluoro-2-oxo-1,2-dihydrospiro[benzo[d][1,3]oxazine-4,3'-piperidine]-1'-carbonyl)-1H-pyrazol-1-yl)benzoic acid] |
